Reference: patent US8815857B2 (Boehringer Ingelheim International GmbH, priority 2011, dated 2014)
Values after ≈ are worked out from the molar mass of the structure shown.

Columns and labels:
[1] = biological target: T1, Recombinant human soluble guanylate cyclase (sGC), alpha 1 / beta 1 subunits, heme-free (Homo sapiens, UniProt Q02108+Q02153); assay: Molecular assay: cGMP formation by heme-free recombinant sGC (CisBio cGMP detection kit); format: biochemical; conditions: 300 pM heme-free sGC, 37° C., 60 min, cGMP readout; read-out: EC50 nM, Activity of Compounds in Molecular Assay
T1 construct: histidine tag (C); made in house; host or cells: Sf9 insect cells (baculovirus coinfection)
T1 sequence (Q02108 1-690 partner): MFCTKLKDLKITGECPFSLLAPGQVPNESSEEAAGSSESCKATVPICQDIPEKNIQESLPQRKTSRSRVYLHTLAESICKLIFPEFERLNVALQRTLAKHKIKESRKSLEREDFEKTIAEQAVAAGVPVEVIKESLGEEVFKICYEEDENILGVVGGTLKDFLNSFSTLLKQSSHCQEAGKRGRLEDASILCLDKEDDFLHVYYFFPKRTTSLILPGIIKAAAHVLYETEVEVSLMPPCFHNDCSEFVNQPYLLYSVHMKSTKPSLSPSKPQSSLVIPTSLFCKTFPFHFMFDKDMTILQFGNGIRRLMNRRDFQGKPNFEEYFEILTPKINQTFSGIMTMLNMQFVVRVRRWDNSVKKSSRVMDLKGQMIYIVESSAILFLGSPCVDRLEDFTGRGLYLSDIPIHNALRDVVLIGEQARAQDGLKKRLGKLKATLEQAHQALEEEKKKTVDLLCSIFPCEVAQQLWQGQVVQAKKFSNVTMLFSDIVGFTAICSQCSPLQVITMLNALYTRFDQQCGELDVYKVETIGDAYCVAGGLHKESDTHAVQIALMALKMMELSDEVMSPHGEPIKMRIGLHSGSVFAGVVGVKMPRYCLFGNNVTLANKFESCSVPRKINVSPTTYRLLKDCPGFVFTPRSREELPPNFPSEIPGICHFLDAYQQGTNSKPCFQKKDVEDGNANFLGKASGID
T1 sequence (Q02153 1-619): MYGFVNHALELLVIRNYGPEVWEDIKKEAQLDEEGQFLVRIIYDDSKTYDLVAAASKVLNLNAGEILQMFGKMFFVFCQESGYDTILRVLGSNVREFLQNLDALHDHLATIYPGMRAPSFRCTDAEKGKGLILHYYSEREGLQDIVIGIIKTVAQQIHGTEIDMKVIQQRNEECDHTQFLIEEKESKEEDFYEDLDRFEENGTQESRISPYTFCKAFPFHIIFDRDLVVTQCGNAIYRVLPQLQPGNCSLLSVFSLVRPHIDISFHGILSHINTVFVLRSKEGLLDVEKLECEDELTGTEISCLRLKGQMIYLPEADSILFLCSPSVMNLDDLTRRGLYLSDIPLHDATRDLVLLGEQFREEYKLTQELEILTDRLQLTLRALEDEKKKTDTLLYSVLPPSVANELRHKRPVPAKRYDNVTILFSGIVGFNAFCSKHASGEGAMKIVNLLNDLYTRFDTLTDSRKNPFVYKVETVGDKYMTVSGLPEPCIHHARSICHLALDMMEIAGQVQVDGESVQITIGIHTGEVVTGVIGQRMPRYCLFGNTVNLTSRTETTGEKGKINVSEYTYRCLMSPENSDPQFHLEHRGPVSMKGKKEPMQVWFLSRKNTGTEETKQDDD
How it was run: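 Heme-free His-tagged sGC (Sf9-expressed, Tween 20-treated lysate) at 300 pM incubated with compounds (1% DMSO) for 60 min at 37° C in MOPS pH 6.8 with 50 nM GTP, IBMX, TCEP. cGMP quantified by HTRF against calibration curve; EC50 from combined undiluted/diluted values.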

[2] = Assessment of solubility: HT solubility in pION buffer, UV spectrophotometry; conditions: kinetic from dmso stock
Protocol: Solubility is measured by the following method.
DMSO stock samples at 10 mM concentration are prepared. […] The samples are pierced and 100 ul of thawed samples are transferred into the PCR plate for analysis. Each sample is run in duplicate at each pH (pH 4.5 and 7.4). Up to 95 samples can be run in replicate at 2 pH's+1 DMSO (blank).
Preparation of pH 4.5 and 7.4 Buffers:
• pH 4.5 buffer:—To 12.5 of system solution (pION)qs to 500 mL of distilled water (pH 2.85-2.90); adjust the pH to pH 4.5 with 0.5 N NaOH. • pH 7.4 buffer: To 12.5 of system solution (pION)qs to 500 mL of distilled water (pH 2.85-2.90); adjust the pH to pH 7.4 with 0.5N NaOH. […] Procedure: Preparation of UV Blank Plate:
75 ul of buffer (pH 7.4 or pH 4.5) is added to UV plate followed by addition of 70 ul of N-propanol. The solution is mixed and the blank spectrum is read using spectrophotometer.
Preparation of Reference UV Plate:
10 ul of each stock sample (including DMSO control) is added to 190 ul of N-propanol to prepare the reference stock plate. Reference stock samples are mixed and 5 ul of each stock sample is added to UV blank plate after it is read spectrophotometrically. The reference stock sample is mixed with blank solution in UV plate and the reference spectrum is read using UV spectrophotometer.
Preparation of Sample for Incubation:
Solubility at pH 7.4:6 ul of each stock sample (including DMSO control) is added to the storage plate containing 600 ul of pH 7.4 buffer, mixed and incubated for 16-19 h. The plate is sealed well during the incubation process. The DMSO content in the sample is 1.0%. The concentration in deep well plates is 100 uM
6 ul of each stock sample (including DMSO control) is added to the deep well plate containing 600 ul of pH 4.5 buffer, mixed and incubated for 16-19 h. The plate is sealed well during the incubation process. The DMSO content in the sample is 1.0%. The concentration in deep well plates is 100 uM
Preparation of Sample UV Plate:
At the end of the incubation period, 100 uL of sample from the storage plate is vacuum filtered using a filter plate. This step wets the filters and the filtrate is discarded. Another 200 ul of the sample from the deep well plate is vacuum filtered using the same filter block but a clean filter plate. 75 ul of the filtrate from the filter plate is transferred to a UV sample plate. 75 ul of N-propanol is added to this UV plate. The solution is mixed and the spectrum is read using the UV spectrophotometer.
The spectra collected for blank, reference and sample from 250-498 nm is analyzed using pION software. If the sample precipitates out, the solubility is reported as XX μg/ml.

[3] = biological target: T2, human soluble guanylate cyclase alpha 1 and beta 1 subunits (sGC) stably expressed in Chinese hamster ovary cells (Homo sapiens, UniProt Q02108+Q02153); assay: sGC cellular activator assay: cGMP in CHO cells expressing human sGC, preincubated with ODQ; format: cell-based; conditions: 40 microM ODQ preincubation, 30 min at room temperature, presence or absence of 50% human serum not given, read-out: EC50 nM, Activity of Compounds in Cellular Assay
T2 construct: expressed in transfected cells; host or cells: Chinese hamster ovary cells, stably transfected
T2 sequence (Q02108 1-690 partner): T1 sequence (Q02108 1-690 partner)
T2 sequence (Q02153 1-619): T1 sequence (Q02153 1-619)
Protocol: The sGC cellular activator assay is performed in the presence and absence of 50% human serum (HS) using Chinese hamster ovary cells that have been stably transfected to express the human soluble guanylate cyclase alpha 1 and beta 1 subunits (sGC). Cells are preincubated with 40 microM 1H-[1,2,4]oxadiazolo[4,3-a]quinoxalin-1-one (ODQ), an sGC inhibitor, for one hour in buffer containing 0.1% bovine serum albumin and 3-isobutyl-1-methylxanthine (IBMX). Concentration response curves are prepared for test compounds in DMSO. An intermediate dilution of the compounds is performed in either buffer containing IBMX or type AB HS containing IBMX. Diluted compounds are added to cells and they are incubated at room temperature for thirty minutes. cGMP is measured using a CisBio homogeneous time resolved fluorescence kit and the EC50 is calculated for each compound.

[4] = pION system solution buffer, pH 4.5, pH 4.5, aqueous buffer, Solubility (pH 4.5), pH 4.5 buffer, 16-19 h incubation, 1.0% DMSO
[5] = pION system solution buffer, pH 7.4, pH 7.4, aqueous buffer, Solubility (pH 7.4), pH 7.4 buffer, 16-19 h incubation, 1.0% DMSO
[6] = pH 6.8, aqueous buffer, Solubility (pH 6.8), pH 6.8

Row | EC50 [1] [nM] | solubility [2, 4] [µg/mL] | solubility [2, 5] [µg/mL] | EC50 [3] [nM] | solubility [2, 6] [µg/mL] | SMILES
1 | 140 | > 64 | > 64 | – | – | Cc1ccc(OCc2ccc(CN3CCOCC3)cc2C)c(-c2csc(N3CC[C@@H](C(=O)O)[C@@H](C)C3)n2)c1 [Compound 173]
2 | 990 | > 55 | > 55 | – | – | Cc1ccc(OCc2ccc(CN3CCOCC3)cc2C)c(-c2csc(N(C)CCCC(=O)O)n2)c1 [Compound 179]
3 | 3100 | > 52 | > 52 | – | – | Cc1ccc(OCc2ccc(CN3CCOCC3)cc2C)c(-c2csc(N[C@H]3CC[C@@H](C(=O)O)C3)n2)c1 [Compound 181]
4 | 110 | 16 (≈ 26.7 µM) | 37 (≈ 61.8 µM) | – | – | Cc1ccc(OCc2ccc(CN3CCN(S(C)(=O)=O)CC3)cc2C)c(-c2csc(N3CCC(C(=O)O)CC3)n2)c1 [Compound 196]
5 | 230 | 51 (≈ 82.4 µM) | > 71 | – | – | Cc1ccc(OCc2ccc(CN3CCN(C(=O)C4CCOC4)CC3)cc2C)c(-c2csc(N3CCC(C(=O)O)CC3)n2)c1 (stereo not shown) [Compound 197]
6 | 140 | > 59 | > 59 | – | – | Cc1ccc(OCc2ccc(CN3CCN(C(=O)N(C)C)CC3)cc2C)c(-c2csc(N3CCC(C(=O)O)CC3)n2)c1 [Compound 199]
7 | 80 | 8.5 (≈ 13.5 µM) | 30 (≈ 47.8 µM) | – | – | Cc1ccc(OCc2ccc(CN3CCN(S(=O)(=O)N(C)C)CC3)cc2C)c(-c2csc(N3CCC(C(=O)O)CC3)n2)c1 [Compound 200]
8 | 960 | 36 (≈ 67.2 µM) | > 53 | – | – | Cc1ccc(OCc2ccc(CN3CCOCC3)cc2C)c(-c2csc(N[C@H]3CC[C@@H](C(=O)O)CC3)n2)c1 [Compound 201]
9 | – | 97 (≈ 168 µM) | > 59 | 310 | 91 (≈ 158 µM) | Cc1ccc(OCc2ccc(C(=O)N3CCCCC3)cc2C)c(-c2nc(N3C[C@H]4CC[C@@H](C3)[C@H]4C(=O)O)sc2F)c1 [Compound 202, 3-[5-fluoro-4-[5-methyl-2-[[2-methyl-4-(piperidine-1-carbonyl)phenyl]methoxy]phenyl]thiazol-2-yl]-3-azabicyclo[3.2.1]octane-8(syn)-carboxylic acid]
10 | – | 11 (≈ 18.2 µM) | – | 100 | 32 (≈ 53.1 µM) | COCC1CN(Cc2ccc(COc3ccc(C)cc3-c3csc(N4C[C@H]5CC[C@@H](C4)[C@H]5C(=O)O)n3)c(C#N)c2)CCO1 (stereo partly shown) [Compound 212]
11 | 1000 | > 60 | > 60 | – | – | Cc1ccc(OCc2ccc(CN3CCOCC3)cc2C)c(-c2csc(N3CC(C(=O)O)C3)n2)c1 [Compound 215]
12 | – | < 0.1 | – | 390 | 0.17 (≈ 0.295 µM) | Cc1ccc(OCc2ccc(C(=O)N3CCCCC3)cc2C)c(-c2csc(N3C[C@H]4CC[C@@H](C3)[C@@]4(O)C(=O)O)n2)c1 [Compound 216, 8-hydroxy-3-(4-{5-methyl-2-[2-methyl-4-(piperidine-1-carbonyl)-benzyloxy]-phenyl}-thiazol-2-yl)-3-aza-bicyclo[3.2.1]octane-8(syn)-carboxylic acid]
13 | – | 42 (≈ 78.7 µM) | 4 (≈ 7.49 µM) | 42 | 4.8 (≈ 8.99 µM) | Cc1ccc(OCc2ccc(CN3CCOCC3)cc2C)c(-c2csc(N3CC[C@]4(C(=O)O)C[C@@H]4C3)n2)c1 [Compound 220]
14 | – | < 0.1 | – | 75 | 0.45 (≈ 0.779 µM) | Cc1ccc(OCc2ccc(C(=O)N3CCCCC3)cc2C)c(-c2csc(N3C[C@H]4CC[C@@H](C3)[C@@]4(F)C(=O)O)n2)c1 [Compound 221, 8-fluoro-3-(4-{5-methyl-2-[2-methyl-4-(piperidine-1-carbonyl)-benzyloxy]-phenyl}-thiazol-2-yl)-3-aza-bicyclo[3.2.1]octane-8(syn)-carboxylic acid]
15 | – | < 0.1 | 30 (≈ 51.6 µM) | 110 | 3.3 (≈ 5.67 µM) | Cc1ccc(OCc2ccc(CN3CCS(=O)(=O)CC3)cc2C)c(-c2csc(N3CC[C@]4(C(=O)O)C[C@@H]4C3)n2)c1 [Compound 222]
16 | – | < 0.1 | – | 5.2 | 2.5 (≈ 4.3 µM) | Cc1ccc(OCc2ccc(CN3CCS(=O)(=O)CC3)cc2C)c(-c2csc(N3CC[C@@]4(C(=O)O)C[C@H]4C3)n2)c1 [Compound 223]
17 | – | < 0.1 | – | 5.8 | 54 (≈ 98.6 µM) | Cc1ccc(OCc2ccc(C(=O)N3CCOCC3)cc2C)c(-c2csc(N3CC[C@@]4(C(=O)O)C[C@H]4C3)n2)c1 [Compound 224]
18 | – | 4.6 (≈ 7.66 µM) | – | 7.3 | 0.3 (≈ 0.499 µM) | Cc1ccc(OCc2ccc(CN3CCN(C(=O)C4CC4)CC3)cc2C)c(-c2csc(N3CC[C@@]4(C(=O)O)C[C@H]4C3)n2)c1 [Compound 225]
19 | – | < 0.1 | – | 13 | 15 (≈ 27.5 µM) | Cc1ccc(OCc2ccc(C(=O)N3CCCCC3)cc2C)c(-c2csc(N3CC[C@@]4(C(=O)O)C[C@H]4C3)n2)c1 [Compound 226]
20 | – | 54 (≈ 91.7 µM) | – | 99 | 62 (≈ 105 µM) | Cc1ccc(OCc2ccc(CN3CCOC(CO)C3)cc2C#N)c(-c2csc(N3C[C@H]4CC[C@@H](C3)[C@H]4C(=O)O)n2)c1 (stereo partly shown) [Compound 227]
21 | – | 6.1 (≈ 9.92 µM) | – | 39 | 0.42 (≈ 0.683 µM) | Cc1ccc(OCc2ccc(CN3CCN(C(=O)C4CC4)CC3)cc2C)c(-c2csc(N3C[C@H]4CC[C@@H](C3)[C@H]4C(=O)O)n2)c1 [Compound 228]
22 | – | 0.4 (≈ 0.712 µM) | – | 76 | 21 (≈ 37.4 µM) | Cc1ccc(OCc2ccc(C(=O)N3CCCCC3)cc2C)c(-c2csc(N3CCCC(C)(C(=O)O)CC3)n2)c1 (stereo not shown) [Compound 229]
23 | – | < 0.1 | – | 120 | 0.95 (≈ 1.59 µM) | Cc1ccc(OCc2ccc(CN3CCS(=O)(=O)CC3)cc2C)c(-c2csc(N3CCCC(C)(C(=O)O)CC3)n2)c1 (stereo not shown) [Compound 230]
24 | – | – | – | 150 | – | Cc1ccc(OCc2ccc(CN3CCOCC3)cc2C)c(-c2csc(N3CCC4CC4(C(=O)O)CC3)n2)c1 (stereo not shown) [Compound 231]
25 | – | – | – | 36 | – | Cc1ccc(OCc2ccc(C(=O)N3CCCCC3)cc2C)c(-c2csc(N3CC[C@@H](C(=O)O)[C@H]3C)n2)c1 [Compound 240]
26 | – | – | – | 11 | – | Cc1ccc(OCc2ccc(C(=O)N3CCCCC3)cc2OC(F)(F)F)c(-c2csc(N3C[C@H]4CC[C@@H](C3)[C@H]4C(=O)O)n2)c1 [Compound 279]
27 | – | – | – | 10 | – | Cc1ccc(OCc2ccc(CN3CCN(C)C(=O)C3)cc2C)c(-c2csc(N3CCC(C(=O)O)CC3)n2)c1 [Compound 292]

Row | SMILES | EC50 [1] [nM] | solubility [2, 4] [µg/mL] | solubility [2, 5] [µg/mL] | EC50 [3] [nM] | solubility [2, 6] [µg/mL]
28 | Cc1ccc(OCc2ccc(CN3CCOCC3)cc2C)c(-c2csc(N3C4CCC3CC(C(=O)O)C4)n2)c1 (stereo not shown) [Compound 174] | 320 | > 66 | > 66 | – | –
